In patent US6624182B1, “Hydroxyphenylvinylthiazoles” (Ciba Specialty Chemicals Corporation, priority 1999, dated 2003):

Assays:
Assay in all cases: Determination of the minimum inhibitory concentration (MIC value) in microtitre plates
[1] = tested on: S. aureus; format: cell-based; conditions: optical density at 620 nm, 48 hours at 37° C., MIC = ≦20% growth; tested at 100; 10 and 1 ppm (approximate values); (2), (3), (4) at 120; 60; 30; 15; 7.5; 3.75 ppm
Excerpt: (§1) Determination of the Minimum Inhibitory Concentration (MIC Value) in Microtitre Plates Nutrient Medium Casein/soybean flour/peptone bouillon for the preparation of preliminary cultures of the test bacteria and yeast. Mycological slant agar for the preliminary culture of moulds Examples of Test Microbes: Bacteria: Staphylococcus hominis DMS 20328 Procedure: The test substances are pre-dissolved in dimethyl sulfoxide (DMSO) and tested in a series of dilutions of 1:2. Bacteria and yeast are cultured overnight in CASO bouillon; the mould is cultured on myco-logical slant agar and sponged off with 10 ml of 0.85% sodium chloride solution (+0.1% Triton X-100). All the test microbes are adjusted to a germ count of 1−5×10^6 KBE/ml using 0.85% sodium chloride solution. The test substances are pre-pipetted into microtitre plates in an amount of 8 μl per well. Pre-diluted microbe suspensions are diluted 1:100 in CASO bouillon (bacteria and yeast) or Sabouraud 2% glucose bouillon (mould) and added to the test substances in an amount of 192 μl per well. The test batches are incubated for 48 hours at 37° C. (bacteria and yeast) or for 5 days at 28° C. (mould). After incubation, the growth is determined by means of the clouding of the test batches (optical density) at 620 nm in a microplate reader. The concentration of substance at which (compared with the growth control) a marked inhibition of growth (≦20% growth) of the test microbes can be observed is given as the minimum inhibitory concentration (MIC value). One microtitre plate is used per test microbe and substance concentration. All substances are tested in duplicate.

[2] = tested on: E. coli; format: cell-based, Escherichia coli NCTC 8196; conditions: optical density at 620 nm, 48 hours at 37° C., MIC = ≦20% growth; tested at 100; 10 and 1 ppm (approximate values); (2), (3), (4) at 120; 60; 30; 15; 7.5; 3.75 ppm
Method: as §1, with “Escherichia coli NCTC 8196” for “Staphylococcus hominis DMS 20328”

[3] = tested on: P. aeruginosa; format: cell-based, Pseudomonas aeruginosa CIP A-22; conditions: optical density at 620 nm, 48 hours at 37° C., MIC = ≦20% growth; tested at 100; 10 and 1 ppm (approximate values); (2), (3), (4) at 120; 60; 30; 15; 7.5; 3.75 ppm
Method: as §1, with “Pseudomonas aeruginosa CIP A-22” for “Staphylococcus hominis DMS 20328”

[4] = tested on: C. albicans; format: cell-based, Candida albicans ATCC 10231; conditions: optical density at 620 nm, 48 hours at 37° C., MIC = ≦20% growth; tested at 100; 10 and 1 ppm (approximate values); (2), (3), (4) at 120; 60; 30; 15; 7.5; 3.75 ppm
Method: as §1, with “Yeast: Candida albicans ATCC 10231” for “Bacteria: Staphylococcus hominis DMS 20328”

[5] = tested on: A. niger; format: cell-based, Aspergillus niger ATCC 6275; conditions: optical density at 620 nm, 5 days at 28° C., MIC = ≦20% growth; tested at 100; 10 and 1 ppm (approximate values); (2), (3), (4) at 120; 60; 30; 15; 7.5; 3.75 ppm
Method: as §1, with “Mould: Aspergillus niger ATCC 6275” for “Bacteria: Staphylococcus hominis DMS 20328”

CCc1csc(/C=C/c2ccc(OCc3ccccc3)cc2O)n1 [Compound of formula (49)]
>100 ppm: MIC values in ppm S. aureus [1] | MIC values in ppm E. coli [2] | MIC values in ppm P. aeruginosa [3] | MIC values in ppm C. albicans [4] | MIC values in ppm A. niger [5]

Cc1cc(/C=C/c2nc(-c3ccc(F)cc3)cs2)cc(C)c1O [Compound of formula (12)]
>100 ppm: MIC values in ppm S. aureus [1] | MIC values in ppm E. coli [2] | MIC values in ppm P. aeruginosa [3] | MIC values in ppm C. albicans [4] | MIC values in ppm A. niger [5]

CC(C)(C)c1csc(/C=C/c2ccc(OCc3ccccc3)cc2O)n1 [Compound of formula (25)]
>100 ppm: MIC values in ppm S. aureus [1] | MIC values in ppm E. coli [2] | MIC values in ppm P. aeruginosa [3] | MIC values in ppm C. albicans [4] | MIC values in ppm A. niger [5]

Cc1cccc(/C=C/c2nc(-c3ccccc3)cs2)c1O [Compound of formula (59)]
>100 ppm: MIC values in ppm S. aureus [1] | MIC values in ppm E. coli [2] | MIC values in ppm P. aeruginosa [3] | MIC values in ppm C. albicans [4] | MIC values in ppm A. niger [5]

COc1cc(/C=C/c2nc(-c3ccc(N4CCCC4)cc3)cs2)cc(O)c1OC [Compound of formula (34)]
>100 ppm: MIC values in ppm S. aureus [1] | MIC values in ppm E. coli [2] | MIC values in ppm P. aeruginosa [3] | MIC values in ppm C. albicans [4] | MIC values in ppm A. niger [5]

COc1ccc(/C=C/c2nc(-c3ccccc3)cs2)c(O)c1 [Compound of formula (55)]
>100 ppm: MIC values in ppm S. aureus [1] | MIC values in ppm E. coli [2] | MIC values in ppm P. aeruginosa [3] | MIC values in ppm C. albicans [4] | MIC values in ppm A. niger [5]

COc1cc(/C=C/c2nc(-c3ccc(F)cc3)cs2)ccc1O [Compound of formula (8)]
>100 ppm: MIC values in ppm S. aureus [1] | MIC values in ppm E. coli [2] | MIC values in ppm P. aeruginosa [3] | MIC values in ppm C. albicans [4] | MIC values in ppm A. niger [5]

COc1ccc(/C=C/c2nc(-c3ccc(F)cc3)cs2)cc1O [Compound of formula (6)]
>100 ppm: MIC values in ppm S. aureus [1] | MIC values in ppm E. coli [2] | MIC values in ppm P. aeruginosa [3] | MIC values in ppm C. albicans [4] | MIC values in ppm A. niger [5]

Cc1cc(/C=C/c2nc(-c3ccc(N4CCCC4)cc3)cs2)cc(C)c1O [Compound of formula (35)]
>100 ppm: MIC values in ppm S. aureus [1] | MIC values in ppm E. coli [2] | MIC values in ppm P. aeruginosa [3] | MIC values in ppm C. albicans [4] | MIC values in ppm A. niger [5]

Cc1cccc(/C=C/c2nc(-c3ccc(N4CCCC4)cc3)cs2)c1O [Compound of formula (36)]
>100 ppm: MIC values in ppm S. aureus [1] | MIC values in ppm E. coli [2] | MIC values in ppm P. aeruginosa [3] | MIC values in ppm C. albicans [4] | MIC values in ppm A. niger [5]

Oc1ccccc1/C=C/c1nc(-c2ccc(N3CCCC3)cc2)cs1 [Compound of formula (33)]
>100 ppm: MIC values in ppm S. aureus [1] | MIC values in ppm E. coli [2] | MIC values in ppm P. aeruginosa [3] | MIC values in ppm C. albicans [4] | MIC values in ppm A. niger [5]

CCOc1cc(/C=C/c2nc(C(C)(C)C)cs2)ccc1O [Compound of formula (19)]
>100 ppm: MIC values in ppm S. aureus [1] | MIC values in ppm E. coli [2] | MIC values in ppm P. aeruginosa [3] | MIC values in ppm C. albicans [4] | MIC values in ppm A. niger [5]

CC(C)(C)c1csc(/C=C/c2cccc(O)c2)n1 [Compound of formula (17)]
>100 ppm: MIC values in ppm S. aureus [1] | MIC values in ppm E. coli [2] | MIC values in ppm P. aeruginosa [3] | MIC values in ppm C. albicans [4] | MIC values in ppm A. niger [5]

Oc1cccc(/C=C/c2nc(-c3ccc(F)cc3)cs2)c1 [Compound of formula (5)]
>100 ppm: MIC values in ppm S. aureus [1] | MIC values in ppm E. coli [2] | MIC values in ppm P. aeruginosa [3] | MIC values in ppm C. albicans [4] | MIC values in ppm A. niger [5]
